Test results published in patent US20260166160A1, “PROTACS TARGETING VIRAL ENZYMES FOR PRECISE TREATMENT OF COVID-19” (Ohio University, priority 2022, published 2026).
Read-outs that look alike come from different tables or passages of the source.

Columns and labels:
[1] = molecular target: Mpro (Severe acute respiratory syndrome coronavirus 2, UniProt P0DTD1); test: Mpro degradation in HEK293 cells stably expressing wild-type Mpro (tetracycline-inducible), Western Blot with anti-T7 antibodies; format: cell-based, SARS-CoV-2; settings: for remaining activity at 0.5 µM: HEK293, 24 h, read-out: Mpro (relative concentration)
Text: To evaluate the degradation activity of MP-C-4N (initially, and additional PROTAC compounds later), a Mpro expression system was constructed in mammalian cells. A cell line stably expressing wild-type Mpro was constructed. According to the RNA sequence of wild-type Mpro, the corresponding DNA sequence was synthesized and codon-optimzied to be suitable for expression in HEK293 cells. After investigating the influence of different expression vectors and promoters on the protein expression level, pCW57.1-TetOn was selected as the expression vector, which contains a tetracycline-inducible promoter, and the target protein expression can be started or closed by controlling the content of tetracycline. With this cell line, the process of expressing MPro during virus infection in human cells was successfully simulated. This model was used to successfully test the degradation ability of candidate compounds on the target protein. Specifically, the cells were treated with doxycycline (1 μg/mL) for 12 h. After removing doxycycline, the cells were treated with PROTACs with indicated concentrations for 24 h and then harvested. The expression of Mpro was determined by Western Blot (WB) analysis using anti-T7 antibodies.

[2] = system: human coronavirus OC43 (HCoV-OC43); test: Anti-virus activity, HCoV-OC43 plaque formation in RD cells
[3] = compound at 500 nM, control 100%, Tables 1-3
[4] = Betacoronavirus 1, OC43, RD, RD cells infected with HCoV-OC43, 33° C., 4-5 days, plaque areas, Tables 7-11

Compound `Cc1ccc(NC(=O)c2ccc(CN3CCN(C(=O)CCOCCNc4cccc5c4C(=O)N(C4CCC(=O)NC4=O)C5=O)CC3)cc2)cc1Nc1nc(-c2cccnc2)cs1` (centres unmarked) [MP-18, 4-((4-(3-(2-((2-(2,6-dioxopiperidin-3-yl)-1,3-dioxoisoindolin-4-yl)amino)ethoxy)propanoyl)piperazin-1-yl)methyl)-N-(4-methyl-3-((4-(pyridin-3-yl)thiazol-2-yl)amino)phenyl)benzamide] has a remaining activity at 0.5 µM [1] of 45% and an EC50 ([2]; Betacoronavirus 1, OC43, RD) of 0.336 µM.

`Cc1ccc(NC(=O)c2ccc(CN3CCN(C(=O)CCOCCOCCNc4cccc5c4C(=O)N(C4CCC(=O)NC4=O)C5=O)CC3)cc2)cc1Nc1nc(-c2cccnc2)cs1` (centres unmarked) [MP-19] was tested, and the remaining activity at 0.5 µM [1] was 32% and the EC50 ([2]; Betacoronavirus 1, OC43, RD) was 0.318 µM.

Compound `Cc1ccc(NC(=O)c2ccc(CN3CCN(C(=O)CCOCCOCCOCCNc4cccc5c4C(=O)N(C4CCC(=O)NC4=O)C5=O)CC3)cc2)cc1Nc1nc(-c2cccnc2)cs1` (centres unmarked) [MP-20] has a remaining activity at 0.5 µM [1] of 28% and an EC50 ([2]; Betacoronavirus 1, OC43, RD) of 0.31 µM.

`Cc1ccc(NC(=O)c2ccc(CN3CCN(C(=O)CCOCCOCCOCCOCCNc4cccc5c4C(=O)N(C4CCC(=O)NC4=O)C5=O)CC3)cc2)cc1Nc1nc(-c2cccnc2)cs1` (centres unmarked) [MP-21] showed a remaining activity at 0.5 µM [1] of 52% and an EC50 ([2]; Betacoronavirus 1, OC43, RD) of 0.48 µM.

With `Cc1ccc(NC(=O)c2ccc(CN3CCN(C(=O)CCOCCOCCOCCOCCOCCNc4cccc5c4C(=O)N(C4CCC(=O)NC4=O)C5=O)CC3)cc2)cc1Nc1nc(-c2cccnc2)cs1` (centres unmarked) [MP-22] the remaining activity at 0.5 µM [1] was 75% and the EC50 ([2]; Betacoronavirus 1, OC43, RD) was 0.615 µM.

For `O=C(CCOCCNc1cccc2c1C(=O)N(C1CCC(=O)NC1=O)C2=O)NCCn1cc(NC(=O)c2c(Cl)cccc2Cl)c(C(=O)NC2CCNCC2)n1` (centres unmarked) [MP-28, 4-(2,6-dichlorobenzamido)-1-(2-(3-(2-((2-(2,6-dioxopiperidin-3-yl)-1,3-dioxoisoindolin-4-yl)amino)ethoxy)propanamido)ethyl)-N-(piperidin-4-yl)-1H-pyrazole-3-carboxamide], the remaining activity at 0.5 µM [1] was 33% and the EC50 ([2]; Betacoronavirus 1, OC43, RD) was 0.315 µM.

Work on `O=C(CCOCCOCCNc1cccc2c1C(=O)N(C1CCC(=O)NC1=O)C2=O)NCCn1cc(NC(=O)c2c(Cl)cccc2Cl)c(C(=O)NC2CCNCC2)n1` (centres unmarked) [MP-29] yielded a remaining activity at 0.5 µM [1] of 40% and an EC50 ([2]; Betacoronavirus 1, OC43, RD) of 0.38 µM.

Work on `O=C(CCOCCOCCOCCNc1cccc2c1C(=O)N(C1CCC(=O)NC1=O)C2=O)NCCn1cc(NC(=O)c2c(Cl)cccc2Cl)c(C(=O)NC2CCNCC2)n1` (centres unmarked) [MP-30] yielded a remaining activity at 0.5 µM [1] of 52% and an EC50 ([2]; Betacoronavirus 1, OC43, RD) of 0.435 µM.

With `O=C(CCOCCOCCOCCOCCNc1cccc2c1C(=O)N(C1CCC(=O)NC1=O)C2=O)NCCn1cc(NC(=O)c2c(Cl)cccc2Cl)c(C(=O)NC2CCNCC2)n1` (centres unmarked) [MP-31] the remaining activity at 0.5 µM [1] was 65% and the EC50 ([2]; Betacoronavirus 1, OC43, RD) was 0.52 µM.

With `O=C(CCOCCOCCOCCOCCOCCNc1cccc2c1C(=O)N(C1CCC(=O)NC1=O)C2=O)NCCn1cc(NC(=O)c2c(Cl)cccc2Cl)c(C(=O)NC2CCNCC2)n1` (centres unmarked) [MP-32] the remaining activity at 0.5 µM [1] was 80% and the EC50 ([2]; Betacoronavirus 1, OC43, RD) was 0.83 µM.

Work on `CC(C)C[C@H](NC(=O)[C@@H](NC(=O)[C@H](C)NC(=O)CCOCCNc1cccc2c1C(=O)N(C1CCC(=O)NC1=O)C2=O)C(C)C)C(=O)N[C@H](C#N)C[C@@H]1CCNC1=O` (some centres unmarked) [MP-38] yielded a remaining activity at 0.5 µM [1, 3] of 50% and an EC50 [2, 4] of 0.38 µM.

With `CC(C)C[C@H](NC(=O)[C@@H](NC(=O)[C@H](C)NC(=O)CCOCCOCCNc1cccc2c1C(=O)N(C1CCC(=O)NC1=O)C2=O)C(C)C)C(=O)N[C@H](C#N)C[C@@H]1CCNC1=O` (some centres unmarked) [MP-39] the remaining activity at 0.5 µM [1, 3] was 40% and the EC50 [2, 4] was 0.235 µM.

`CC(C)C[C@H](NC(=O)[C@@H](NC(=O)[C@H](C)NC(=O)CCOCCOCCNc1cccc2c1C(=O)N(C1CCC(=O)NC1=O)C2=O)C(C)C)C(=O)N[C@H](C#N)C[C@@H]1CCNC1=O` (some centres unmarked) [MP-40] was tested, and the “Mpro (relative concentration)” value [1, 3] was 25% and the EC50 ([2]; RD cells infected with HCoV-OC43, 33° C., 4-5 days, plaque areas, Tables 7-11) was 0.225 µM.

Work on `CC(C)C[C@H](NC(=O)[C@@H](NC(=O)[C@H](C)NC(=O)CCOCCOCCOCCNc1cccc2c1C(=O)N(C1CCC(=O)NC1=O)C2=O)C(C)C)C(=O)N[C@H](C#N)C[C@@H]1CCNC1=O` (some centres unmarked) [MP-41] yielded a remaining activity at 0.5 µM [1, 3] of 45% and an EC50 [2, 4] of 0.325 µM.

In the case of `CC(C)C[C@H](NC(=O)[C@@H](NC(=O)[C@H](C)NC(=O)CCOCCOCCOCCOCCNc1cccc2c1C(=O)N(C1CCC(=O)NC1=O)C2=O)C(C)C)C(=O)N[C@H](C#N)C[C@@H]1CCNC1=O` (some centres unmarked) [MP-42], the remaining activity at 0.5 µM [1, 3] is reported as 70% and the EC50 [2, 4] is reported as 0.41 µM.

For `CC(C)C1CCN(C(=O)[C@@H](NC(=O)[C@H](C)NC(=O)CCOCCOCCOCCNc2cccc3c2C(=O)N(C2CCC(=O)NC2=O)C3=O)C(C)(C)C)C1C(=O)N[C@H](C#N)CC1CCNC1=O` (some centres unmarked) [MP-C-4N], the “concentration at which degradation of Mpro was detected” value ([1]; WB, cells treated 24 h, FIG. 55) was 0.5 to 1.0 µM and the “concentration dependence of Mpro degradation activity” value ([1]; WB, FIG. 55) was “concentration-dependent”.
